From patent US4005076A, “Hydrazones of 3-formylrifamycin SV” (Gruppo Lepetit S.p.A., priority 1971, dated 1977) come the findings set out here.

Structures are written as SMILES. Converted amounts (≈) assume the structure as drawn.

This test deals with Staphylococcus aureus strain which is resistant to rifampicin (Staph. aureus Tour). The test can be described thus: in vitro minimal inhibitory concentration against rifampicin-resistant Staphylococcus aureus strain. The test is classed as cell-based. Conditions: Staphylococcus aureus, read-out: Minimal inhibitory concentration. The procedure:
In particular, compounds illustrative of the invention at concentrations of about 10 to 20 μg/ml or less inhibit the growth of a Staph. aureus Tour strain resistant to rifampicin.
One of the most important characteristics of the new hydrazones is their activity against rifampicin-resistant Staphylococcus aureus strains. Rifampicin, that is 3-(4-methyl-1-piperazinyl)iminomethylrifamycin SV, disclosed in U.S. Pat. No. 3,342,810, is the most known and widely used rifamycin derivative in therapeutic practice.
The data of the new compounds are compared with those of representative hydrazones disclosed in U.S. Pat. No. 3,342,810.
Regarding `COC1C=COC2(C)Oc3c(C)c(O)c4c(O)c(c(C=NNC5CCCC5)c(O)c4c3C2=O)NC(=O)C(C)=CC=CC(C)C(O)C(C)C(O)C(C)C(OC(C)=O)C1C` (centres unmarked) [Example 1], the MIC is 20 µg/mL (≈ 24.8 µM).

In the case of `COC1C=COC2(C)Oc3c(C)c(O)c4c(O)c(c(C=NNC5CCCCC5)c(O)c4c3C2=O)NC(=O)C(C)=CC=CC(C)C(O)C(C)C(O)C(C)C(OC(C)=O)C1C` (centres unmarked) [Example 2], the MIC came out at 20 µg/mL (≈ 24.3 µM).

In the case of `CCCCCN(C)N=Cc1c2c(O)c3c(O)c(C)c4c(c3c1O)C(=O)C(C)(OC=CC(OC)C(C)C(OC(C)=O)C(C)C(O)C(C)C(O)C(C)C=CC=C(C)C(=O)N2)O4` (centres unmarked) [Example 3], the MIC came out at 10 µg/mL (≈ 12.1 µM).

Consider `COC1C=COC2(C)Oc3c(C)c(O)c4c(O)c(c(C=NNc5ccnc6c(C(F)(F)F)cccc56)c(O)c4c3C2=O)NC(=O)C(C)=CC=CC(C)C(O)C(C)C(O)C(C)C(OC(C)=O)C1C` (centres unmarked) [Example 22], for which the MIC is 50 µg/mL (≈ 53.5 µM).

On to `COC1C=COC2(C)Oc3c(C)c(O)c4c(O)c(c(C=NNc5cc(-c6ccccc6)nc6cc(C(F)(F)F)ccc56)c(O)c4c3C2=O)NC(=O)C(C)=CC=CC(C)C(O)C(C)C(O)C(C)C(OC(C)=O)C1C` (centres unmarked) [Example 23], for which the MIC worked out at 20 µg/mL (≈ 19.8 µM).

For `COC1C=COC2(C)Oc3c(C)c(O)c4c(O)c(c(C=NNc5cc(C)c6cccc(C)c6n5)c(O)c4c3C2=O)NC(=O)C(C)=CC=CC(C)C(O)C(C)C(O)C(C)C(OC(C)=O)C1C` (centres unmarked) [Example 25], the MIC is 20 µg/mL (≈ 22.3 µM).

For the molecule `COC1C=COC2(C)Oc3c(C)c(O)c4c(O)c(c(C=NNc5cccc(C)c5)c(O)c4c3C2=O)NC(=O)C(C)=CC=CC(C)C(O)C(C)C(O)C(C)C(OC(C)=O)C1C` (centres unmarked) [Example 26], the MIC was found to be 20 µg/mL (≈ 24.1 µM).

`COc1ccccc1NN=Cc1c2c(O)c3c(O)c(C)c4c(c3c1O)C(=O)C(C)(OC=CC(OC)C(C)C(OC(C)=O)C(C)C(O)C(C)C(O)C(C)C=CC=C(C)C(=O)N2)O4` (centres unmarked) [Example 33]: the MIC was 50 µg/mL (≈ 59.1 µM).

For the molecule `COC1C=COC2(C)Oc3c(C)c(O)c4c(O)c(c(C=NNCCOc5c(Cl)cc(N)cc5Cl)c(O)c4c3C2=O)NC(=O)C(C)=CC=CC(C)C(O)C(C)C(O)C(C)C(OC(C)=O)C1C` (centres unmarked) [Example 34], the MIC came out at 50 µg/mL (≈ 53 µM).

For `COC1C=COC2(C)Oc3c(C)c(O)c4c(O)c(c(C=NNc5ccccc5[N+](=O)[O-])c(O)c4c3C2=O)NC(=O)C(C)=CC=CC(C)C(O)C(C)C(O)C(C)C(OC(C)=O)C1C` (centres unmarked) [Example 35], the MIC was found to be 20 µg/mL (≈ 23.2 µM).

For the molecule `COC1C=COC2(C)Oc3c(C)c(O)c4c(O)c(c(C=NNc5cccc([N+](=O)[O-])c5)c(O)c4c3C2=O)NC(=O)C(C)=CC=CC(C)C(O)C(C)C(O)C(C)C(OC(C)=O)C1C` (centres unmarked) [Example 36], the MIC turned out to be 50 µg/mL (≈ 58.1 µM).

As to `COC1C=COC2(C)Oc3c(C)c(O)c4c(O)c(c(C=NNc5ccc(F)cc5)c(O)c4c3C2=O)NC(=O)C(C)=CC=CC(C)C(O)C(C)C(O)C(C)C(OC(C)=O)C1C` (centres unmarked) [Example 37], the MIC is 50 µg/mL (≈ 60 µM).

As to `COC1C=COC2(C)Oc3c(C)c(O)c4c(O)c(c(C=NNc5ccccc5C)c(O)c4c3C2=O)NC(=O)C(C)=CC=CC(C)C(O)C(C)C(O)C(C)C(OC(C)=O)C1C` (centres unmarked) [Example 38], the MIC is 20 µg/mL (≈ 24.1 µM).

As to `COC1C=COC2(C)Oc3c(C)c(O)c4c(O)c(c(C=NNc5c(Cl)cc(Cl)cc5Cl)c(O)c4c3C2=O)NC(=O)C(C)=CC=CC(C)C(O)C(C)C(O)C(C)C(OC(C)=O)C1C` (centres unmarked) [Example 39], the MIC amounted to 5 µg/mL (≈ 5.44 µM).

Regarding `COC1C=COC2(C)Oc3c(C)c(O)c4c(O)c(c(C=NNc5c(C)cc(C(C)(C)C)cc5C)c(O)c4c3C2=O)NC(=O)C(C)=CC=CC(C)C(O)C(C)C(O)C(C)C(OC(C)=O)C1C` (centres unmarked) [Example 41], the MIC was 20 µg/mL (≈ 22.2 µM).

Consider `COC1C=COC2(C)Oc3c(C)c(O)c4c(O)c(c(C=NN(C)Cc5ccc(-c6ccccc6)cc5)c(O)c4c3C2=O)NC(=O)C(C)=CC=CC(C)C(O)C(C)C(O)C(C)C(OC(C)=O)C1C` (centres unmarked) [Example 42], for which the MIC turned out to be 5 µg/mL (≈ 5.43 µM).

Regarding `COC1C=COC2(C)Oc3c(C)c(O)c4c(O)c(c(C=NNc5cccc(C(F)(F)F)c5)c(O)c4c3C2=O)NC(=O)C(C)=CC=CC(C)C(O)C(C)C(O)C(C)C(OC(C)=O)C1C` (centres unmarked) [Example 43, 3-Formylrifamycin SV: hydrazone of ((3-trifluoromethyl)-phenyl) hydrazine], the MIC amounted to 10 µg/mL (≈ 11.3 µM).

For `CCCCCN(CCCCC)N=Cc1c2c(O)c3c(O)c(C)c4c(c3c1O)C(=O)C(C)(OC=CC(OC)C(C)C(OC(C)=O)C(C)C(O)C(C)C(O)C(C)C=CC=C(C)C(=O)N2)O4` (centres unmarked) [Example 46], the MIC came out at 1 µg/mL (≈ 1.14 µM).

Take `COC1C=COC2(C)Oc3c(C)c(O)c4c(O)c(c(C=NNC56CC7CC(CC(C7)C5)C6)c(O)c4c3C2=O)NC(=O)C(C)=CC=CC(C)C(O)C(C)C(O)C(C)C(OC(C)=O)C1C` (centres unmarked) [Example 47]: the MIC was 5 µg/mL (≈ 5.72 µM).

`CCN(CC)N=Cc1c2c(O)c3c(O)c(C)c4c(c3c1O)C(=O)C(C)(OC=CC(OC)C(C)C(OC(C)=O)C(C)C(O)C(C)C(O)C(C)C=CC=C(C)C(=O)N2)O4` (centres unmarked) [N,N-Diethylhydrazone of 3-formylrifamycin SV]: the MIC is greater than 100 µg/mL.

Consider `CNN=Cc1c2c(O)c3c(O)c(C)c4c(c3c1O)C(=O)C(C)(OC=CC(OC)C(C)C(OC(C)=O)C(C)C(O)C(C)C(O)C(C)C=CC=C(C)C(=O)N2)O4` (centres unmarked) [N-Methylhydrazone of 3-formylrifamycin SV], for which the MIC is greater than 100 µg/mL.

With `COC1C=COC2(C)Oc3c(C)c(O)c4c(O)c(c(C=NNc5ccccc5)c(O)c4c3C2=O)NC(=O)C(C)=CC=CC(C)C(O)C(C)C(O)C(C)C(OC(C)=O)C1C` (centres unmarked) [Phenylhydrazone of 3-formylrifamycin SV], the MIC was 100 µg/mL (≈ 123 µM).

`COC1C=COC2(C)Oc3c(C)c(O)c4c(O)c(c(C=NNc5ccc(C(=O)O)cc5)c(O)c4c3C2=O)NC(=O)C(C)=CC=CC(C)C(O)C(C)C(O)C(C)C(OC(C)=O)C1C` (centres unmarked) [p-Carboxyphenylhydrazone of 3-formylrifamycin SV]: the MIC is greater than 100 µg/mL.
